{"source": "patent US12685312B2", "about": "“Sulfonamide apyrase inhibitors” (Texas Crop Science, Inc., priority 2022, dated 2026)"}
{"system": "apyrase", "assay": "Screen for apyrase inhibitors (Method 1, in vitro phosphate-release absorbance assay)", "format": "biochemical", "settings": "inhibitor conc at 1 mM stock, 1 hr room temperature, absorbance 630 nm; rounded average of two assay results", "procedure": "Apyrase inhibitors useful as enhancers of pesticidal activity are assessed using an in vitro assay. The method of Windsor, Bio Techniques 33:1024-1030 (November 2002) was used as follows Screen for Apyrase Inhibitors- 96 well plates were used for the assay: (Greiner bio-one: REF-655901-96 well, PS, F-bottom, Clear, Non-binding) Buffers: • Reaction Buffer: 60 mM Hepes; 3 mM MgCl2, 3 mM CaCl2 and 3 mM ATP (pH 6.5) • Development Buffer A: 2% aqueous ammonium molybdate • Development Buffer B: 11% ascorbic acid in 37.5% TCA in water • Stop buffer C: 2% trisodium citrate in 2% acetic acid solution in water • Add 100 μl of reaction buffer to each well. • Add 10 μl of DMSO (control) or inhibitor/compound or compounds such as […] or orthovanadate to each well. […] A blank cell indicates either <10% observed inhibition or a large difference between repetitions. In certain examples, the lack of observed inhibition is due to a lack of solubility of the compound under assay conditions, rather than a lack of apyrase inhibitory activity.", "units": {"% Inhibition of Apyrase": "%"}}
{"smiles": "Cc1ccc(NC(=O)c2cccc(NS(=O)(=O)c3ccc(Br)cc3)c2)nc1", "note": "[I-646, 3-((4-bromophenyl)sulfonamido)-N-(5-methylpyridin-2-yl)benzamide]", "% Inhibition of Apyrase": 54}
{"smiles": "COc1ccc(NS(=O)(=O)c2cc(OC)ccc2NC(=O)c2c(OC)cccc2OC)cc1", "note": "[I-827, 2,6-dimethoxy-N-(4-methoxy-2-(N-(4-methoxyphenyl)sulfamoyl)phenyl)benzamide]", "% Inhibition of Apyrase": 39}
{"smiles": "O=C(Nc1cccc(S(=O)(=O)Nc2ccc(SC(F)F)cc2)c1)c1ccsc1", "note": "[I-728, N-(3-(N-(4-((difluoromethyl)thio)phenyl)sulfamoyl)phenyl) thiophene-3-carboxamide]", "% Inhibition of Apyrase": 56}
{"smiles": "Cn1nc2c(c1NC(=O)c1cccc(NS(=O)(=O)c3ccc(Br)cc3)c1)CCC2", "note": "[I-653, 3-((4-bromophenyl)sulfonamido)-N-(2-methyl-2,4,5,6-tetrahydrocyclopenta[c]pyrazol-3-yl)benzamide]", "% Inhibition of Apyrase": 44}
{"smiles": "CCN(CC)S(=O)(=O)c1cccc(NC(=O)c2ccc(S(=O)(=O)N3CCCc4ccccc43)cc2)c1", "note": "[I-868, N-(3-(N,N-diethylsulfamoyl)phenyl)-4-((3,4-dihydroquinolin-1(2H)-yl)sulfonyl)benzamide]", "% Inhibition of Apyrase": 58}
{"smiles": "O=C(Nc1nc2c(s1)CCC2)c1cccc(NS(=O)(=O)c2ccc3c(c2)OCCO3)c1", "note": "[I-637, N-(5,6-dihydro-4H-cyclopenta[d]thiazol-2-yl)-3-((2,3-dihydrobenzo[b][1,4]dioxine)-6-sulfonamido)benzamide]", "% Inhibition of Apyrase": 57}
{"smiles": "O=C(Nc1cccc2cccnc12)c1cccc(S(=O)(=O)N2CCc3ccccc32)c1", "note": "[I-444, 3-(indolin-1-ylsulfonyl)-N-(quinolin-8-yl)benzamide]", "% Inhibition of Apyrase": 61}
{"smiles": "Cc1ccccc1NC(=O)c1cccc(S(=O)(=O)Nc2ccc3c(c2)OCO3)c1", "note": "[I-238, 3-(N-(benzo[d][1,3]dioxol-5-yl)sulfamoyl)-N-(o-tolyl)benzamide]", "% Inhibition of Apyrase": 74}
{"smiles": "CNC(=O)c1ccc(NC(=O)c2ccc(S(=O)(=O)Nc3ccc(C)cc3)cc2)cc1", "note": "[I-874, N-methyl-4-(4-(N-(p-tolyl)sulfamoyl)benzamido)benzamide]", "% Inhibition of Apyrase": 56}
{"smiles": "COc1ccc(Br)c(C(=O)Nc2cccc(NS(=O)(=O)c3ccc(C)c(C)c3)c2)c1", "note": "[I-338, 2-bromo-N-(3-((3,4-dimethylphenyl)sulfonamido)phenyl)-5-methoxybenzamide]", "% Inhibition of Apyrase": 69}
{"smiles": "Cc1ccc(NC(=O)c2cccc(S(=O)(=O)N3CCc4ccccc43)c2)cc1C", "note": "[I-452, N-(3,4-dimethylphenyl)-3-(indolin-1-ylsulfonyl)benzamide]", "% Inhibition of Apyrase": 60}
{"smiles": "COc1ccc(OC)c(S(=O)(=O)Nc2cccc(C(=O)Nc3cccc(C(F)(F)F)c3)c2)c1", "note": "[I-323, 3-((2,5-dimethoxyphenyl)sulfonamido)-N-(3-(trifluoromethyl)phenyl)benzamide]", "% Inhibition of Apyrase": 42}
{"smiles": "CN(c1ccccc1)S(=O)(=O)c1ccccc1C(=O)Nc1ccc(C#N)cc1", "note": "[I-235, N-(4-cyanophenyl)-2-(N-methyl-N-phenylsulfamoyl)benzamide]", "% Inhibition of Apyrase": 51}
{"smiles": "CCc1ccccc1NC(=O)c1cccc(S(=O)(=O)N2CCc3ccccc32)c1", "note": "[I-566, N-(2-ethylphenyl)-3-(indolin-1-ylsulfonyl)benzamide]", "% Inhibition of Apyrase": 51}
{"smiles": "Cc1ccc(NS(=O)(=O)c2ccc(C(=O)N3CC4CCCN4Cc4ccccc43)cc2)cc1", "note": "(stereo not shown) [I-891, 4-(2,3,5,10,11,11a-hexahydro-1H-benzo[e]pyrrolo[1,2-a][1,4]diazepine-10-carbonyl)-N-(p-tolyl)benzenesulfonamide]", "% Inhibition of Apyrase": 30}
{"smiles": "CN(c1ccccc1)S(=O)(=O)c1cccc(NC(=O)c2ccc3ccccc3n2)c1", "note": "[I-754, N-(3-(N-methyl-N-phenylsulfamoyl)phenyl)quinoline-2-carboxamide]", "% Inhibition of Apyrase": 36}
{"smiles": "Cc1ccc(NC(=O)c2cccc(S(=O)(=O)Nc3ccc4c(c3)OCO4)c2)cc1C", "note": "[I-230, 3-(N-(benzo[d][1,3]dioxol-5-yl)sulfamoyl)-N-(3,4-dimethylphenyl)benzamide]", "% Inhibition of Apyrase": 66}
{"smiles": "O=C(c1ccc(S(=O)(=O)Nc2ccc(Cl)cc2)cc1)N1CCc2ccccc21", "note": "[I-208, N-(4-chlorophenyl)-4-(indoline-1-carbonyl)benzenesulfonamide]", "% Inhibition of Apyrase": 66}
{"smiles": "CCCOc1ccc(C(=O)Nc2cccc(NS(=O)(=O)c3ccc(C)c(C)c3)c2)cc1OC", "note": "[I-348, N-(3-((3,4-dimethylphenyl)sulfonamido)phenyl)-3-methoxy-4-propoxybenzamide]", "% Inhibition of Apyrase": 48}
{"smiles": "COc1ccccc1N(C)S(=O)(=O)c1ccc(C(=O)N2CCSc3ccccc32)cc1", "note": "[I-867, 4-(3,4-dihydro-2H-benzo[b][1,4]thiazine-4-carbonyl)-N-(2-methoxyphenyl)-N-methylbenzenesulfonamide]", "% Inhibition of Apyrase": 58}
{"smiles": "O=C(Nc1ccc(F)c(Cl)c1)c1cccc(S(=O)(=O)Nc2ccc3c(c2)OCO3)c1", "note": "[I-190, 3-(N-(benzo[d][1,3]dioxol-5-yl)sulfamoyl)-N-(3-chloro-4-fluorophenyl)benzamide]", "% Inhibition of Apyrase": 73}
{"smiles": "O=C(Nc1cccc(S(=O)(=O)Nc2ccccc2Cl)c1)c1cnccn1", "note": "[I-752, N-(3-(N-(2-chlorophenyl)sulfamoyl)phenyl)pyrazine-2-carboxamide]", "% Inhibition of Apyrase": 40}
{"smiles": "CC1CCc2c(sc(NC(=O)c3cccc(S(=O)(=O)Nc4ccc(Br)cc4)c3)c2C#N)C1", "note": "(stereo not shown) [I-9, 3-(N-(4-bromophenyl)sulfamoyl)-N-(3-cyano-6-methyl-4,5,6,7-tetrahydrobenzo[b]thiophen-2-yl)benzamide]", "% Inhibition of Apyrase": 61}
{"smiles": "CCOc1ccc(NC(=O)c2cccc(S(=O)(=O)Nc3ccc(OCC)cc3)c2)cc1", "note": "[I-541, N-(4-ethoxyphenyl)-3-(N-(4-ethoxyphenyl)sulfamoyl)benzamide]", "% Inhibition of Apyrase": 54}
{"smiles": "COc1ccc(NC(=O)c2cccc(S(=O)(=O)Nc3ccc4c(c3)OCO4)c2)cc1Cl", "note": "[I-882, 3-(N-(benzo[d][1,3]dioxol-5-yl)sulfamoyl)-N-(3-chloro-4-methoxyphenyl)benzamide]", "% Inhibition of Apyrase": 53}
{"smiles": "Cc1ccc(S(=O)(=O)Nc2cccc(C(=O)Nc3cccc(C)c3)c2)cc1", "note": "[I-14, 3-((4-methylphenyl)sulfonamido)-N-(m-tolyl)benzamide]", "% Inhibition of Apyrase": 59}
{"smiles": "COc1ccc(NC(=O)c2cccc(S(=O)(=O)N3CC(C)CC(C)C3)c2)c(S(=O)(=O)Nc2ccccc2Cl)c1", "note": "(stereo not shown) [I-822, N-(2-(N-(2-chlorophenyl)sulfamoyl)-4-methoxyphenyl)-3-((3,5-dimethylpiperidin-1-yl)sulfonyl)benzamide]", "% Inhibition of Apyrase": 54}
{"smiles": "N#Cc1cccc(NC(=O)c2ccc(S(=O)(=O)Nc3ccc(Cl)cc3)cc2)c1", "note": "[I-185, 4-(N-(4-chlorophenyl)sulfamoyl)-N-(3-cyanophenyl)benzamide]", "% Inhibition of Apyrase": 77}
{"smiles": "O=C(c1ccc(NS(=O)(=O)c2ccc3c(c2)OCCO3)cc1)N1CCCc2ccccc21", "note": "[I-912, N-(4-(1,2,3,4-tetrahydroquinoline-1-carbonyl)phenyl)-2,3-dihydrobenzo[b][1,4]dioxine-6-sulfonamide]", "% Inhibition of Apyrase": 59}
{"smiles": "Cc1cc(NC(=O)c2cccc(NS(=O)(=O)c3ccc4c(c3)OCCO4)c2)no1", "note": "[I-628, 3-((2,3-dihydrobenzo[b][1,4]dioxine)-6-sulfonamido)-N-(5-methylisoxazol-3-yl)benzamide]", "% Inhibition of Apyrase": 68}
{"smiles": "COc1ccc(NC(=O)c2ccc(S(=O)(=O)Nc3cccc(C(F)(F)F)c3)cc2)cc1OC", "note": "[I-403, N-(3,4-dimethoxyphenyl)-4-(N-(3-(trifluoromethyl)phenyl)sulfamoyl)benzamide]", "% Inhibition of Apyrase": 38}
{"smiles": "CC(C)c1ccc(NC(=O)c2ccc(S(=O)(=O)N3CCCc4ccccc43)cc2)cc1", "note": "[I-864, 4-((3,4-dihydroquinolin-1(2H)-yl)sulfonyl)-N-(4-isopropylphenyl)benzamide]", "% Inhibition of Apyrase": 59}
{"smiles": "O=C(NCCCN1CCCC1=O)c1cccc(S(=O)(=O)Nc2ccc(Br)cc2)c1", "note": "[I-46, 3-(N-(4-bromophenyl)sulfamoyl)-N-(3-(2-oxopyrrolidin-1-yl)propyl)benzamide]", "% Inhibition of Apyrase": 12}
{"smiles": "CC(=O)c1cccc(NS(=O)(=O)c2cc(C(=O)Nc3cccc([N+](=O)[O-])c3)ccc2C)c1", "note": "[I-29, 3-(N-(3-acetylphenyl)sulfamoyl)-4-methyl-N-(3-nitrophenyl)benzamide]", "% Inhibition of Apyrase": 22}
{"smiles": "Cc1ccc(S(C)(=O)=O)cc1C(=O)Nc1cccc(NS(=O)(=O)c2ccc(Cl)cc2)c1", "note": "[I-346, N-(3-((4-chlorophenyl)sulfonamido)phenyl)-2-methyl-5-(methylsulfonyl)benzamide]", "% Inhibition of Apyrase": 53}
{"smiles": "Cc1c(NC(=O)c2cccc(S(=O)(=O)Nc3ccc4c(c3)OCO4)c2)cccc1[N+](=O)[O-]", "note": "[I-10, 3-(N-(benzo[d][1,3]dioxol-5-yl)sulfamoyl)-N-(2-methyl-3-nitrophenyl)benzamide]", "% Inhibition of Apyrase": 60}
{"smiles": "O=C(CNC(=O)c1ccc(Br)cc1)Nc1cccc(S(=O)(=O)Nc2ccc(Br)cc2)c1", "note": "[I-195, 4-bromo-N-(2-((3-(N-(4-bromophenyl)sulfamoyl)phenyl)amino)-2-oxoethyl)benzamide]", "% Inhibition of Apyrase": 70}
